Here are results for 17 molecules from ChEMBL document CHEMBL5537182, “Small Molecule Benzothiophene with In Vivo Efficacy in a Mouse Model of Drug-Resistant Enterococcus faecium Infection” (J Med Chem, 2024).

Data set [1] can be described thus: Cytotoxicity against African green monkey Vero cells assessed as cell viability incubated for 48 hrs by MTT assay. It is filed as toxicity, cell-based. The conditions noted are these: chlorocebus sabaeus. In general terms: Tetrazolium assays rely on reduction of a dye to a coloured formazan, in cell work by metabolically active cells.
Data set [2] deals with Enterococcus faecium. Kind of data set: Anti-bacterial activity against drug-resistant Enterococcus faecium NCTC 7171 assessed as invisible pellets in media measured after overnight incubation. In kind it is functional.
Data set [3] deals with Enterococcus faecium. The data set is described as follows: In vivo anti-bacterial activity against vancomycin-resistant Enterococcus faecium EN 2966 infected immunocompetent mouse model of acute peritonitis-sepsis assessed as protection at 100 mg/kg, sc measured upto 3 days. It is filed as functional, organism-based. The conditions noted are these: time <= 3.0 day.
The subject of data set [4] is Enterococcus faecium. Kind of data set: Anti-bacterial activity against vancomycin-resistant Enterococcus faecium EN 2966 assessed as invisible pellets in media measured after overnight incubation. It is filed as functional.

Values after ≈ are worked out from the molar mass of the structure shown. Active and inactive are the calls of the source. The calls are words filed in the database; no cut-off is given here.

One may read the CC50 as the concentration that lowers cell viability or growth by half. Broadly, the MIC is the lowest concentration found to suppress growth. On to `O=C(c1ccc([N+](=O)[O-])o1)N1CCN(C(=O)c2cc3ccccc3s2)CC1`, for which the CC50 in data set [1] is 16 µM. Besides, in data set [2], the MIC is greater than 130 µM.
On the same counts, the results for `O=C(NNC(=O)c1cc2cccnc2s1)c1ccc([N+](=O)[O-])o1` are 150 µM and greater than 100 µM.
For `O=C(N/N=C/c1cc2ccccc2s1)c1ccc([N+](=O)[O-])o1`, in that order: 39 µM and greater than 158 µM.
On the same counts, the results for `O=C(NNC(=O)c1csc2ccccc12)c1ccc([N+](=O)[O-])o1` are 75 µM and 15 µM (≈ 4.97 µg/mL).
Turning to `CN[C@H](CC(C)C)C(=O)N[C@H]1C(=O)N[C@@H](CC(N)=O)C(=O)N[C@H]2C(=O)N[C@H]3C(=O)N[C@H](C(=O)N[C@H](C(=O)O)c4cc(O)cc(O)c4-c4cc3ccc4O)[C@H](O)c3ccc(c(Cl)c3)Oc3cc2cc(c3O[C@@H]2O[C@H](CO)[C@@H](O)[C@H](O)[C@H]2O[C@H]2C[C@](C)(N)[C@H](O)[C@H](C)O2)Oc2ccc(cc2Cl)[C@H]1O` [VANCOMYCIN], in data set [3], the outcome was Active. Also, the minimal inhibitory concentration (MIC) in data set [4] is no less than 30 µM; in data set [2], 1.1 µM (≈ 1.59 µg/mL).
For `CC(=O)NC[C@H]1CN(c2ccc(N3CCOCC3)c(F)c2)C(=O)O1` [LINEZOLID], the minimal inhibitory concentration (MIC) in data set [4] was determined as 4.7 µM (≈ 1.59 µg/mL); in data set [2] it was 4.6 µM (≈ 1.55 µg/mL).
With `O=C(NNC(=O)c1sc2cc(Cl)ccc2c1Cl)c1ccc(Cl)o1`, the CC50 in data set [1] came to 128 µM. Also, the minimum inhibitory concentration (MIC) in data set [2] is greater than 128 µM.
For `CC(C)(NC(=O)c1ccc([N+](=O)[O-])o1)c1cc2ccccc2s1`, in that order: 38 µM and greater than 150 µM.
In the case of `C[C@@H](O)[C@H]1C(=O)N2C(C(=O)O)=C(S[C@@H]3CN[C@H](C(=O)N(C)C)C3)[C@H](C)[C@H]12` [MEROPENEM], the minimum inhibitory concentration (MIC) in data set [2] was determined as 19 µM (≈ 7.29 µg/mL).
In the case of `O=C(NNC(=O)c1nc2ccccc2s1)c1ccc([N+](=O)[O-])o1`, in data set [1], the CC50 was determined as 150 µM. Also, the MIC in data set [2] worked out at 30 µM (≈ 9.97 µg/mL).
Turning to `O=C(NNC(=O)c1sc2cc(Cl)ccc2c1Cl)c1ccc(Cl)s1`, in data set [1], the 50% cytotoxic concentration (CC50) was 123 µM. Also, the minimal inhibitory concentration (MIC) in data set [2] is greater than 123 µM.
For `O=C(NNC(=O)c1cc2ccccc2o1)c1ccc([N+](=O)[O-])o1`, in that order: 39 µM and greater than 100 µM.
On the same counts, the results for `O=[N+]([O-])c1ccc(-c2nnc(-c3cc4ccccc4s3)o2)o1` are 160 µM and greater than 160 µM.
On to `O=C(NNC(=O)c1cc2ccc(Cl)cc2s1)c1ccc([N+](=O)[O-])o1`, for which, in data set [1], the CC50 is greater than 136 µM. Besides, in data set [2], the MIC was greater than 136 µM.
For `O=C(NNC(=O)c1sc2cc(Cl)ccc2c1Cl)c1ccc([N+](=O)[O-])s1`, the half-maximal cytotoxic concentration (CC50) in data set [1] is greater than 120 µM. Moreover, the MIC in data set [2] is greater than 120 µM.
Take `O=C(NNC(=O)c1sc2c(Cl)cccc2c1Cl)c1ccc([N+](=O)[O-])o1`: in data set [1], the CC50 was greater than 120 µM. For the same molecule, in data set [2], the minimal inhibitory concentration (MIC) stood at 62 µM (≈ 24.8 µg/mL).
`NC[C@H]1O[C@H](O[C@H]2[C@H](O)[C@@H](O[C@H]3O[C@H](CO)[C@@H](O)[C@H](N)[C@H]3O)[C@H](N)C[C@@H]2N)[C@H](O)[C@@H](O)[C@@H]1O` [KANAMYCIN]: in data set [2], the MIC was greater than 24 µM.
